Earlier results as cited in publication PMC7113672 (Antiviral Research, 2014).

Experiments:
[1] = test system: influenza A/WSN/1933 (H1N1) virus
[2] = test system: other cysteine proteases such as the coronaviral main protease, cathepsins B, K, L, and S, and papain
[3] = test system: SARS-CoV; conditions: in vivo
[4] = test system: MERS-CoV

In the case of `Sc1ncnc2nc[nH]c12` [6MP, 6-Mercaptopurine], the selectivity index [1] is listed as 4, the EC50 ([1]; read-out: EC50, protective effect against influenza A/WSN/1933 (H1N1) virus) is listed as 26.5 µM and the “inhibition of other cysteine proteases” value [2] is listed as “do not inhibit”.

For `Nc1nc2nc[nH]c2c(=S)[nH]1` [6TG, 6-Thioguanine], the “inhibition of other cysteine proteases” value [2] is given as “do not inhibit”.

In the case of `COc1c(C)c2c(c(O)c1C/C=C(\C)CCC(=O)O)C(=O)OC2` [Mycophenolic acid], the “efficacy against SARS-CoV” value [3] is given as “ineffective”, the “effect of combination on replication of MERS-CoV” value [4] is given as “synergistically inhibit” and the EC50 ([4]; read-out: EC50, inhibition of MERS-CoV replication) is given as 0.27 µM.
